According to ChEMBL document CHEMBL3414489, “3,4-Diaza-bicyclo[4.1.0]hept-4-en-2-one phenoxypropylamine analogs of irdabisant (CEP-26401) as potent histamine-3 receptor inverse agonists with robust wake-promoting activity” (Eur J Med Chem, 2015):
Activity calls are given as the source filed them. No cut-off for these calls is given here.

Columns and labels:
[1] = target: T1, Histamine H3 receptor (Homo sapiens, UniProt Q9Y5N1); experiment: Binding affinity to human histamine H3 receptor
[2] = target: Histamine H3 receptor (Rattus norvegicus, UniProt Q9QYN8); experiment: Binding affinity to rat histamine H3 receptor
Sequence of Histamine H3 receptor (Rattus norvegicus, UniProt Q9QYN8) (Q9QYN8 whole entry): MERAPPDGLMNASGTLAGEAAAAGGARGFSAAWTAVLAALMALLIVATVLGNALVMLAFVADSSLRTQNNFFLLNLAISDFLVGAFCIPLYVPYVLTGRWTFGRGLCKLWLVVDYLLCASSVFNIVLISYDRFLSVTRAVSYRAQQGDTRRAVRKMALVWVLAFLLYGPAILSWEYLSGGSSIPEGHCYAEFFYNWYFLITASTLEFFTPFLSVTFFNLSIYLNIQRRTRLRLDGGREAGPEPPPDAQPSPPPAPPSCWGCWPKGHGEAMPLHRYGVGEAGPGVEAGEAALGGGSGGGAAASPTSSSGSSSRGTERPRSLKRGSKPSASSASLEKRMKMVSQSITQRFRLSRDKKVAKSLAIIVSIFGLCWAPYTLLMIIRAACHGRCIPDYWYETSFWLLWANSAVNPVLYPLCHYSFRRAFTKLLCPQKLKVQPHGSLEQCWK

[3] = Half life in mouse liver microsomes; assay type: ADME
[4] = Half life in rat liver microsomes; assay type: ADME
[5] = Half life in dog liver microsomes; assay type: ADME, Canis lupus familiaris
[6] = Half life in monkey liver microsomes; assay type: ADME, Macaca mulatta; conditions: rhesus monkey
[7] = Half life in human liver microsomes; assay type: ADME
[8] = target: T2, Cytochrome P450 1A2 (Homo sapiens, UniProt P05177); experiment: Inhibition of CYP1A2 (unknown origin); assay type: ADME
T2 sequence (P05177 whole entry): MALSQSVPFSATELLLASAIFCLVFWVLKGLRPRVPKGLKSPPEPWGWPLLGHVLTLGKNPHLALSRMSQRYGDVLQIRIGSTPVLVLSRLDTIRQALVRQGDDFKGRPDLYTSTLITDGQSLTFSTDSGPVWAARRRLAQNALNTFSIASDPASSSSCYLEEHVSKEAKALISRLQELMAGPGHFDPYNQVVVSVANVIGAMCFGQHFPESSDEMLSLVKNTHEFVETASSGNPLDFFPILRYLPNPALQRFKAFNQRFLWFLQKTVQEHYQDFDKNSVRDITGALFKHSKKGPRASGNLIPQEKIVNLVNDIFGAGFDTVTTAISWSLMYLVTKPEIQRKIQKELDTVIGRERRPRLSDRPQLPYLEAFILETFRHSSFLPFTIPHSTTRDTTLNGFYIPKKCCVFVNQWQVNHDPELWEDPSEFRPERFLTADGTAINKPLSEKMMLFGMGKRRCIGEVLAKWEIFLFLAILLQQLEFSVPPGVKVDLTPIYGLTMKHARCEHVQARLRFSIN

[9] = target: Cytochrome P450 2C9 (Homo sapiens, UniProt P11712); experiment: Inhibition of CYP2C9 (unknown origin); assay type: ADME
Sequence of Cytochrome P450 2C9 (P11712 whole entry): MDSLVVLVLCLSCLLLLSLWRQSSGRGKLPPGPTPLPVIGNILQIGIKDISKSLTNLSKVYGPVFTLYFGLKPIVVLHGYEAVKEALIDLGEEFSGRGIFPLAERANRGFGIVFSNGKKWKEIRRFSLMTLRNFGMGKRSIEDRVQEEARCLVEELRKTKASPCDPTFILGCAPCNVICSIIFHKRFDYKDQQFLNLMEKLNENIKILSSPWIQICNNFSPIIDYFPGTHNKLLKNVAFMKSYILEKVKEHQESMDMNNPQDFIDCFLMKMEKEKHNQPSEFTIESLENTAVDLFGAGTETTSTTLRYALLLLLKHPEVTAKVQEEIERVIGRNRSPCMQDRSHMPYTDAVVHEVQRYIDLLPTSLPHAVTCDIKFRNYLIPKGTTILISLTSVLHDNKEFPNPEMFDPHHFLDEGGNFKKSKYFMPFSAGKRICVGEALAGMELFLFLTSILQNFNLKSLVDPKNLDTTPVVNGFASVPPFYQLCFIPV

[10] = target: Cytochrome P450 2C19 (Homo sapiens, UniProt P33261); experiment: Inhibition of CYP2C19 (unknown origin); assay type: ADME
Sequence of Cytochrome P450 2C19 (P33261 whole entry): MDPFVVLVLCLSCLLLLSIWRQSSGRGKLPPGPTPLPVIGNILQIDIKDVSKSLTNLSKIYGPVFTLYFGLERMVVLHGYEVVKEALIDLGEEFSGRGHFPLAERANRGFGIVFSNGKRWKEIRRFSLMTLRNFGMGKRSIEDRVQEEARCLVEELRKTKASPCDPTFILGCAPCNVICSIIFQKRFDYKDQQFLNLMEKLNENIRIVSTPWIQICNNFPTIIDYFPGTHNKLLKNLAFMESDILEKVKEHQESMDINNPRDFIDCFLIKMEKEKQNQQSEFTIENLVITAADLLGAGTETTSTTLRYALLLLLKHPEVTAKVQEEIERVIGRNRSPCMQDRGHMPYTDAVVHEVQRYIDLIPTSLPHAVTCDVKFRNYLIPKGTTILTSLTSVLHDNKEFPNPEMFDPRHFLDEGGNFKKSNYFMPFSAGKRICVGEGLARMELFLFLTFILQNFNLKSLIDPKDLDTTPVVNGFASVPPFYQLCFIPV

[11] = target: Cytochrome P450 2D6 (Homo sapiens, UniProt P10635); experiment: Inhibition of CYP2D6 (unknown origin); assay type: ADME
Sequence of Cytochrome P450 2D6 (P10635 whole entry): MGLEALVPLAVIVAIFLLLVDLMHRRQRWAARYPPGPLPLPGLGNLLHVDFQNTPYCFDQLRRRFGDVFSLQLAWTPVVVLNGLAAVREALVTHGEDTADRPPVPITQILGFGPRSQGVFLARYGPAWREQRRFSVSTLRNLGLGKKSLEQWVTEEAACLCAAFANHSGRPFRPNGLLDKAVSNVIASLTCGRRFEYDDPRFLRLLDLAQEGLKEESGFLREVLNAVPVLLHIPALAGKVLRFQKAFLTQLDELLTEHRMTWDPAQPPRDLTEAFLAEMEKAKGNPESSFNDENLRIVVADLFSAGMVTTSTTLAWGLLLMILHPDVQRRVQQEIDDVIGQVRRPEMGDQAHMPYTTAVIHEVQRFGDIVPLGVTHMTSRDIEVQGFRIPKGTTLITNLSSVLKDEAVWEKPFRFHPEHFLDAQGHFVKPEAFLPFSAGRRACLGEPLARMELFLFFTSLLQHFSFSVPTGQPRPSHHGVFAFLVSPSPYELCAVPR

[12] = target: Cytochrome P450 3A4 (Homo sapiens, UniProt P08684); experiment: Inhibition of CYP3A4 (unknown origin); assay type: ADME
Sequence of Cytochrome P450 3A4 (P08684 whole entry): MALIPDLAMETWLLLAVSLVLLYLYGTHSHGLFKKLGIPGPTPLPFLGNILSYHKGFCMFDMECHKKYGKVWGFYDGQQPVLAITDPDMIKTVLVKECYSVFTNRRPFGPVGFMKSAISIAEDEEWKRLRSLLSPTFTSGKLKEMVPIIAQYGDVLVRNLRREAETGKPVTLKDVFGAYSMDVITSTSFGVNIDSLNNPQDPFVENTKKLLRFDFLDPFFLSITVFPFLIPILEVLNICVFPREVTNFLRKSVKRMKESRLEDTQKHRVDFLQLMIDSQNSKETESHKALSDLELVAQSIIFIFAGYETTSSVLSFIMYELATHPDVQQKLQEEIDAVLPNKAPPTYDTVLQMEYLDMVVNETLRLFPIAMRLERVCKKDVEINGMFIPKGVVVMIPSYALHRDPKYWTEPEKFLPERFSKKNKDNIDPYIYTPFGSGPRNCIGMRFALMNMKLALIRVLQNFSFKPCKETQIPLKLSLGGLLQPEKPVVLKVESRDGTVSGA

[13] = Oral bioavailability in rat; assay type: ADME, organism-based; conditions: in vivo
[14] = Half life in iv dosed rat; assay type: ADME, organism-based; conditions: in vivo
[15] = Clearance in iv dosed rat; assay type: ADME, organism-based; conditions: in vivo
[16] = target: Histamine H1 receptor (Homo sapiens, UniProt P35367); experiment: Inhibition of human H1R
Sequence of Histamine H1 receptor (P35367 whole entry): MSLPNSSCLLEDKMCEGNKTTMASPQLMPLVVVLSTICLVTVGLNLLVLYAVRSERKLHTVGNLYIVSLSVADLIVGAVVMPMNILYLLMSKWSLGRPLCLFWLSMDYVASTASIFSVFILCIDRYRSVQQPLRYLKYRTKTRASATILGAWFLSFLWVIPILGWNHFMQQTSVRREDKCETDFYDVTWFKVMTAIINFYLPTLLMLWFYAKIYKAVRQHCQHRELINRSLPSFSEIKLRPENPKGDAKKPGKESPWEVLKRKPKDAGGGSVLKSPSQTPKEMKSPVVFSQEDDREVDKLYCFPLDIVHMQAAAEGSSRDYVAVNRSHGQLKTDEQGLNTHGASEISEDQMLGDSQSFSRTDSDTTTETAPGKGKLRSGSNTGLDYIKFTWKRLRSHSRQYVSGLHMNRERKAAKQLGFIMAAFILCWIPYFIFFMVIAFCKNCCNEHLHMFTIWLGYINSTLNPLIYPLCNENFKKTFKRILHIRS

[17] = target: Histamine H2 receptor (Homo sapiens, UniProt P25021); experiment: Inhibition of human H2R
Sequence of Histamine H2 receptor (P25021 whole entry): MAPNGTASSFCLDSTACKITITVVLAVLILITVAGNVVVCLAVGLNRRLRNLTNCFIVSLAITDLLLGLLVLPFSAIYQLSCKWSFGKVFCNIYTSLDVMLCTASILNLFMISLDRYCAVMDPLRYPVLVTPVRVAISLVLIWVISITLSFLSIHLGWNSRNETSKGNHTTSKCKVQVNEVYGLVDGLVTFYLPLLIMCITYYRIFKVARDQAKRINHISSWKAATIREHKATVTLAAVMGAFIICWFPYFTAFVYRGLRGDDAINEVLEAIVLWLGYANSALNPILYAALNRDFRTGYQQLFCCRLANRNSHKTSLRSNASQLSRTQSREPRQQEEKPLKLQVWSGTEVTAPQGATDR

[18] = target: Histamine H4 receptor (Homo sapiens, UniProt Q9H3N8); experiment: Inhibition of human H4R
Sequence of Histamine H4 receptor (Q9H3N8 whole entry): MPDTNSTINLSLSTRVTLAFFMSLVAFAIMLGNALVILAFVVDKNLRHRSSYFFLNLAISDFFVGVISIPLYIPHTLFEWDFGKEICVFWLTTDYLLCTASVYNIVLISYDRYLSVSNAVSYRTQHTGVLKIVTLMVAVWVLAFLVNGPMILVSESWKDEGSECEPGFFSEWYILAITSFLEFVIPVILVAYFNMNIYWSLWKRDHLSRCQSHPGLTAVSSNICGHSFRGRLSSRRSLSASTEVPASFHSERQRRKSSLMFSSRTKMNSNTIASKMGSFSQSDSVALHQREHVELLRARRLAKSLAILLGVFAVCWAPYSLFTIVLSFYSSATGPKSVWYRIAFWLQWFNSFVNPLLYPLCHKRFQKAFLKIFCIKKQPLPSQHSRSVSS

[19] = target: Sodium-dependent dopamine transporter (Homo sapiens, UniProt Q01959); experiment: Inhibition of DAT (unknown origin)
Sequence of Sodium-dependent dopamine transporter (Q01959 whole entry): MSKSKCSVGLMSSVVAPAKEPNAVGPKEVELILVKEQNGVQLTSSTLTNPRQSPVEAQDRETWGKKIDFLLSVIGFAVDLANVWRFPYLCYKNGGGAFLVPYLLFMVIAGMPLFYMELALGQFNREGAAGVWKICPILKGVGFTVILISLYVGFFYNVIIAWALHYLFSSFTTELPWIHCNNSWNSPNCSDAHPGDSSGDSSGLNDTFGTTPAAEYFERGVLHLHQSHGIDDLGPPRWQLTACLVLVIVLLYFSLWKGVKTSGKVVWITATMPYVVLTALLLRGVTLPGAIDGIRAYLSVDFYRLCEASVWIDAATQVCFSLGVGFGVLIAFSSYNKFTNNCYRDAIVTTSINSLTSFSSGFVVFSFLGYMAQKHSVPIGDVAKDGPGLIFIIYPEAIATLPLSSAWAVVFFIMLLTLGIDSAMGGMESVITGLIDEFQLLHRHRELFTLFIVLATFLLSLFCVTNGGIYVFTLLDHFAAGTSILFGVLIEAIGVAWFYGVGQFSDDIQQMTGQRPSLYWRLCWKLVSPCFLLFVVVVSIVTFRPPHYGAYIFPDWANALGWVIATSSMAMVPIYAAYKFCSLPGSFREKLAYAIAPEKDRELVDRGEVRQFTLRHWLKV

[20] = target: T3, Alpha-2C adrenergic receptor (Homo sapiens, UniProt P18825); experiment: Inhibition of alpha-2C adrenergic receptor (unknown origin)
T3 sequence (P18825 whole entry): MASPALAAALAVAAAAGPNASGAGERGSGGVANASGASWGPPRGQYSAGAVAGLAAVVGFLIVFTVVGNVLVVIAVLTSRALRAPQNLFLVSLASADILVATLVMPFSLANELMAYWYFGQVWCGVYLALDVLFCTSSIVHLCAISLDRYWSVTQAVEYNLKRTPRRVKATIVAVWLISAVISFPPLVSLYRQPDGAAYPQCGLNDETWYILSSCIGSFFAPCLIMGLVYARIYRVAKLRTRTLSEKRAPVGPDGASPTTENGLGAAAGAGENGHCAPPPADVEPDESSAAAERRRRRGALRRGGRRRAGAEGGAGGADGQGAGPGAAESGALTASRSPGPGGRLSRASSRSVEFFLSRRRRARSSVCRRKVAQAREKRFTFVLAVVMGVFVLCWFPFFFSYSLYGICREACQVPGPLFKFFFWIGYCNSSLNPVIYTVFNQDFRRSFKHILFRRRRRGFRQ

[21] = Aqueous solubility of the compound at pH 7.4; assay type: physicochemical
[22] = Aqueous solubility of the compound at pH 2; assay type: physicochemical
[23] = Permeability across human Caco2 cells; assay type: ADME, cell-based; conditions: Caco-2
[24] = Plasma protein binding in rat; assay type: ADME, cell-free; conditions: read-out: PPB (converted)
[25] = Plasma protein binding in dog; assay type: ADME, cell-free, Canis lupus familiaris; conditions: read-out: PPB (converted)
[26] = Plasma protein binding in human; assay type: ADME, cell-free; conditions: read-out: PPB (converted)
[27] = Half life in rat at 1 mg/kg, iv; assay type: ADME, organism-based; parameters: dose 1 mg/kg, route intravenous; conditions: in vivo
[28] = Volume of distribution at steady state in rat at 1 mg/kg, iv; assay type: ADME, organism-based; parameters: dose 1 mg/kg, route intravenous; conditions: in vivo, read-out: Vdss
[29] = Clearance in rat at 1 mg/kg, iv; assay type: ADME, organism-based; parameters: dose 1 mg/kg, route intravenous; conditions: in vivo
[30] = AUC (0 to t) in rat at 10 mg/kg, po; assay type: ADME, organism-based; parameters: dose 10 mg/kg, route oral; conditions: plasma
[31] = Cmax in rat at 10 mg/kg, po; assay type: ADME, organism-based; parameters: dose 10 mg/kg, route oral; conditions: in vivo
[32] = Oral bioavailability in rat at 10 mg/kg; assay type: ADME, organism-based; conditions: in vivo
[33] = Ratio of drug level in brain to plasma in rat at 10 mg/kg, ip after 2 hrs; assay type: ADME, organism-based; parameters: dose 10 mg/kg, route intraperitoneal; conditions: read-out: BPR
[34] = Half life in dog at 1 mg/kg, iv; assay type: ADME, organism-based, Canis lupus familiaris; parameters: dose 1 mg/kg, route intravenous; conditions: in vivo
[35] = Volume of distribution at steady state in dog at 1 mg/kg, iv; assay type: ADME, organism-based, Canis lupus familiaris; parameters: dose 1 mg/kg, route intravenous; conditions: in vivo, read-out: Vdss
[36] = test system: Canis familiaris; experiment: AUC (0 to t) in dog at 3 mg/kg, po; assay type: ADME, organism-based, Canis lupus familiaris, Plasma; parameters: dose 3 mg/kg, route oral; conditions: in vivo
[37] = Cmax in dog at 3 mg/kg, po; assay type: ADME, organism-based, Canis lupus familiaris; parameters: dose 3 mg/kg, route oral; conditions: in vivo
[38] = test system: Canis familiaris; experiment: Oral bioavailability in dog at 3 mg/kg; assay type: ADME, organism-based, Canis lupus familiaris; conditions: in vivo
[39] = Ratio of drug level in brain to plasma in dog at 10 mg/kg, ip after 2 hrs; assay type: ADME, organism-based, Canis lupus familiaris; parameters: dose 10 mg/kg, route intraperitoneal; conditions: read-out: BPR
[40] = Half life in monkey at 1 mg/kg, iv; assay type: ADME, organism-based, Macaca mulatta; parameters: dose 1 mg/kg, route intravenous; conditions: rhesus monkey, in vivo
[41] = Volume of distribution at steady state in monkey at 1 mg/kg, iv; assay type: ADME, organism-based, Macaca mulatta; parameters: dose 1 mg/kg, route intravenous; conditions: rhesus monkey, in vivo, read-out: Vdss
[42] = Clearance in monkey at 1 mg/kg, iv; assay type: ADME, organism-based, Macaca mulatta; parameters: dose 1 mg/kg, route intravenous; conditions: rhesus monkey, in vivo
[43] = AUC (0 to t) in monkey at 3 mg/kg, po; assay type: ADME, organism-based, Macaca mulatta; parameters: dose 3 mg/kg, route oral; conditions: rhesus monkey, plasma
[44] = Cmax in monkey at 3 mg/kg, po; assay type: ADME, organism-based, Macaca mulatta; parameters: dose 3 mg/kg, route oral; conditions: rhesus monkey, in vivo
[45] = Oral bioavailability in monkey at 3 mg/kg; assay type: ADME, organism-based, Macaca mulatta; conditions: rhesus monkey, in vivo
[46] = species on record: Rattus norvegicus; experiment: Inhibition of RAMH-induced dipsogenia in rat; assay type: functional
[47] = test system: Rattus norvegicus; experiment: Wake promoting activity in ip dosed rat EEG/EMG model; assay type: functional, organism-based
[48] = test system: Rattus norvegicus; experiment: Wake promoting activity in rat EEG/EMG model assessed as AUC of cumulative wake at 3 mg/kg, ip up to 4 hrs relative to vehicle-treated control; assay type: functional, organism-based; parameters: dose 3 mg/kg, time < 4 hr
[49] = test system: Rattus norvegicus; experiment: Wake promoting activity in rat EEG/EMG model assessed as AUC of cumulative wake at 30 mg/kg, ip up to 5.5 hrs relative to vehicle-treated control; assay type: functional, organism-based; parameters: dose 30 mg/kg, time < 5.5 hr
[50] = test system: Rattus norvegicus; experiment: Wake promoting activity in rat EEG/EMG model assessed as total time awake at 30 mg/kg, ip at 6.5 hrs relative to vehicle-treated control; assay type: functional; conditions: route intraperitoneal
[51] = test system: Rattus norvegicus; experiment: Wake promoting activity in rat EEG/EMG model assessed as recovery from sleep at 3 to 30 mg/kg, ip after 22 hrs relative to vehicle-treated control; assay type: functional, organism-based
[52] = test system: Rattus norvegicus; experiment: Toxicity in rat at 3 to 30 mg/kg, ip; assay type: organism-based; parameters: dose 3-30 mg/kg, route intraperitoneal; conditions: in vivo
[53] = test system: Rattus norvegicus; experiment: Toxicity in po dosed rat; assay type: organism-based; conditions: in vivo
[54] = target: T1, Histamine H3 receptor; experiment: Inverse agonist activity at human H3R expressed in CHO cells assessed as inhibition of RAMH-induced [35S]GTPgammaS binding relative to control; assay type: functional, cell-based
[55] = species on record: Rattus norvegicus; conditions: 10 mg/kg

T1 sequence (Q9Y5N1 whole entry): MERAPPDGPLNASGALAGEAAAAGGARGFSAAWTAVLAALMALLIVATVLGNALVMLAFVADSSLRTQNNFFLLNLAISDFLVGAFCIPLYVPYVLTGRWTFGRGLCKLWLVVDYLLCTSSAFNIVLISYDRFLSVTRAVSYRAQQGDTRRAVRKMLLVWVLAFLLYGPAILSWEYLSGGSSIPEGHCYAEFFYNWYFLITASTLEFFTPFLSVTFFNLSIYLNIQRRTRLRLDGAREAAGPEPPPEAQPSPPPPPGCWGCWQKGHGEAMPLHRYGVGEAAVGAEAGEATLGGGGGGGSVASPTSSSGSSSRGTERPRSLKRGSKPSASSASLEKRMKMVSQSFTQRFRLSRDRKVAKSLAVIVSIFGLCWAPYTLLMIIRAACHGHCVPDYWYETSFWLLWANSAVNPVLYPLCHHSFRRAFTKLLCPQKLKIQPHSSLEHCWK

C[C@H](COc1ccc(C2=NNC(=O)C3CC23)cc1)CN1CCC[C@H]1C (mixture of isomers)
Ki [1]: 2.3 nM
Ki [2]: 9.8 nM
half-life [3]: > 40 min
half-life [4]: > 40 min
half-life [5]: > 40 min
half-life [6]: > 40 min
half-life [7]: > 40 min
IC50 [8]: > 30000 nM
IC50 [9]: > 30000 nM
IC50 [10]: > 30000 nM
IC50 [11]: > 30000 nM
IC50 [12]: > 30000 nM
bioavailability [13]: > 25%
half-life [14]: 108 min
clearance [15]: 19 mL/min/kg

Cc1cc(OCCCN2CCC[C@H]2C)ccc1C1=NNC(=O)C2CC12 (mixture of isomers)
Ki [1]: 7 nM
Ki [2]: 66 nM

C[C@@H]1CCCN1CCCOc1ccc(C2=NNC(=O)[C@@H]3C[C@H]23)cc1
Ki [1]: 3.1 nM
Ki [2]: 9.9 nM
half-life [3]: > 40 min
half-life [4]: > 40 min
half-life [6]: > 40 min
half-life [7]: > 40 min
IC50 [8]: > 30000 nM
Ki [16]: > 10000 nM
Ki [17]: > 10000 nM
Ki [18]: > 10000 nM
Ki [19]: 10200 nM
Ki [20]: 1500 nM
solubility [21]: > 4000 µg/mL
solubility [22]: > 4000 µg/mL
Papp [23]: 17.5 ×10⁻⁶ cm/s
fraction unbound [24]: 0.19
fraction unbound [25]: 0.4
fraction unbound [26]: 0.55
half-life [27]: 66 min
Vd [28]: 0.9 L/kg
clearance [29]: 9.6 mL/min/kg
AUC(0-t) [30]: 5760 ng·h/mL
Cmax [31]: 810 ng/mL
bioavailability [32]: 34%
Kp at 2 h [33]: 2
half-life [34]: 192 min
Vd [35]: 3.7 L/kg
AUCt [36]: 4205 ng·h/mL
Cmax [37]: 664 ng/mL
F [38]: 115%
Kp at 2 h [39]: 2.1
half-life [40]: 462 min
Vd [41]: 4 L/kg
clearance [42]: 6 mL/min/kg
AUC(0-t) [43]: 9570 ng·h/mL
Cmax [44]: 764 ng/mL
bioavailability [45]: 136%
Activity [46]: Dose-dependent effect
ED50 [46]: 0.14 mg/kg
Activity [47]: Dose-dependent effect
AUC [48]: 128 min
AUC [49]: 233 min
Time [50]: 197 min
Activity [51]: inactive
Activity [52]: Non-toxic
Activity [53]: Non-toxic
EC50 [54]: 0.7 nM
AUC [55]: 158 min
